Assay results from patent US12085575B2, “Compositions and methods for detecting proteinopathies” (BOARD OF SUPERVISORS OF LOUISIANA STATE UNIVERSITY AND …, priority 2011, dated 2024).
Residues, ends and D or L forms follow the SMILES beside them. *: point of attachment. Cbz = O=C(OCc1ccccc1)*

Experiments:
[1] = test system: HA-polyubiquitylated proteins; assay: UV-induced degradation of HA-polyubiquitylated proteins (anti-HA Western blot); format: cell-based, human; details: for UV-induced degradation of HA-Lys48-linked polyubiquitylated proteins: HA-Lys48 only ubiquitin construct; for UV-induced decrease of HA-polyubiquitylated proteins: MG132 1 μM or Bafl 1 nM 18 h, 3 h recovery; for UV-induced decrease of HA-polyubiquitylated proteins / UV-induced degradation of HA-polyubiquitylated proteins: UV 25 mJ/m2; for UV-induced degradation of HA-polyubiquitylated proteins: MG132 1 nm or 3-MA 10 nm for 18 h
Description: Immunoblotting Analysis of HA-ubiquitin conjugated proteins in cells exposed to UV radiation. Cells ([…]) were transfected with a hemagglutinin (HA)-ubiquitin plasmid using the PolyFect transfection reagent (Qiagen; Valencia, CA) as described (24). Twenty-four h after transfection, cells were treated with either proteasome inhibitor MG132 (1 μM) (Boston Biochemicals; Cambridge, MA) or autophagy inhibitor Bafilomycin A1 (Bafl) (1 nM) (Sigma-Aldrich) or 3-Methyladenine (3-MA) (100 nM) for 18 h. Cells were exposed to UV radiation (25 mJoules, using BioRad GS Gene Linker™ UV Chamber) and/or left untreated. Cells were then allowed to recover in the presence of inhibitors for 3 hr. Cell lysis, SDS-PAGE, and immunoblotting analysis to detect HA-ubiquitin conjugated proteins using anti-HA antibodies was carried out as described herein.
Decrease in the steady state levels of polyubiquitylated proteins could be due to their increased deubiquitylation or increased degradation via the 26S proteasome. Also, the ubiquitin antibody used in the experiment herein is known to cross-react with free ISG15/UCRP (44), and ISG15 protein is elevated in A-T cells (20). An HA-ubiquitin construct was transfected and then the steady state levels of the HA-polyubiquitylated proteins was assessed (to rule out the possibility of protein polyubiquitylation versus protein polyISGlyation), in the absence or presence of the proteasome inhibitor MG132 (to rule out the possibility of protein deubiquitylation versus protein degradation), in UV treated A-T and ATM+ cells. In FIG. 8B, A-T and ATM+ cells were transfected with a HA-ubiquitin construct. Cells were then treated with MG132 (1 μM) or Bafl (1 nM) for 18 hours and exposed to UV radiation (25 mJ/m2). After recovery in the presence of inhibitors for an additional three hours, cells were lysed. Cell extracts were analyzed by Western blotting for HA-polyubiquitylated proteins and actin using anti-HA and anti-actin antibodies respectively. Intensity of the total HA-polyubiquitylated proteins was quantitated using BioRad Quantity One software and results shown in FIG. 8C.
To complement the results shown in FIG. 8B, another construct was used that expresses HA-ubiquitin and that can preferentially make polyubiquitin chains linked through Lys48 on the substrates (20). In FIG. 8D, A-T and ATM+ cells were transfected with HA-Lys48 only ubiquitin construct. The inhibitor and UV treatments, cell lysis, SDS-PAGE, and immunoblotting analysis to detect HA-ubiquitin conjugated proteins using anti-HA antibodies was carried out as described herein. The experiment was repeated two times with the reproducible results. Similar results were obtained using this distinct HA-ubiquitin construct (FIG. 8D) as obtained herein (FIG. 8B); UV induced MG132- and Bafilomycin-resistant degradation of HA-Lys48-linked polyubiquitylated proteins in A-T cells, but not in ATM+ cells.
For FIG. 14A, HA-ubiquitin-transfected A-T/LV-control shRNA cells were exposed to UV (25 mJ/m2). After three hours of recovery, assessment of HA-polyubiquitylated proteins was carried out as described herein for FIG. 8B. In FIG. 14B, HA-ubiquitin-transfected A-T/LV-control shRNA cells were treated with Bafl (1 nm for 18 h). Cells were then exposed to UV (25 mJ/m2). After three hours of recovery in the presence of the inhibitor, assessment of HA-polyubiquitylated proteins was carried out as described for FIG. 14A. For FIG. 14C, HA-ubiquitin-transfected A-T/LV-control shRNA cells were treated with MG132 (1 nm for 18 h). Cells were then exposed to UV (25 mJ/m2). After three hours of recovery in the presence of the inhibitor, assessment of HA-polyubiquitylated proteins was carried out as described for FIG. 14A. For FIG. 14D, HA-ubiquitin-transfected A-T/LV-control shRNA cells were treated with 3-MA (10 nm for 18 h). Cells were then exposed to UV (25 mJ/m2). […]

LC3 = assay: UV-induced LC3 degradation in organotypic cerebellar brain slices; format: cell-based, mice
Description: In FIG. 19B, LC3 degradation in UV-treated A-T brain slices is shown. The same tissue lysates prepared from A-T and ATM+/− brains used in FIG. 17A were analyzed for LC3 and actin proteins. Intensity of the total LC3 and corresponding actin bands was quantitated using BioRad Quantity One software. The percent changes in LC3 amounts were calculated as a ratio between band intensities of LC3 (I and II) and actin (bar chart). In FIGS. 19A and 19B, the bar graphs have the following legends: bars 1: No drug and +Bafl controls; bars 2: +UV; and bars 3: +Bafl+UV.

CO/C1=C\C(C)=C\[C@@H](C)[C@@H](O)[C@@H](C)C/C(C)=C/C=C/[C@H](OC)[C@@H]([C@@H](C)[C@@H](O)[C@H](C)[C@@]2(O)C[C@@H](O)[C@H](C)[C@@H](C(C)C)O2)OC1=O [Bafilomycin A1]
UV-induced degradation of HA-Lys48-linked polyubiquitylated proteins ([1]; A-T cells): resistant
UV-induced decrease of HA-polyubiquitylated proteins ([1]; A-T cells): failed to block
UV-induced decrease of HA-polyubiquitylated proteins ([1]; ATM+ cells): significantly blocked
aberrant autophagic flux (degradation) of autophagy substrates under genotoxic stress (LC3; A-T cerebellar brain slices): resistant
UV-induced autophagic flux (LC3 degradation) (LC3; ATM+/− cerebellar slices): protected

CC(C)C[C@@H](C=O)NC(=O)[C@H](CC(C)C)NC(=O)[C@H](CC(C)C)NC(=O)OCc1ccccc1 [MG132] (Cbz-Leu-Leu-Leu-aldehyde)
UV-induced degradation of HA-Lys48-linked polyubiquitylated proteins ([1]; A-T cells): resistant
UV-induced decrease of HA-polyubiquitylated proteins ([1]; A-T cells): failed to protect
UV-induced degradation of HA-polyubiquitylated proteins ([1]; A-T/LV-ISG15 shRNA (ISG15-silenced) cells): completely block
UV-induced degradation of HA-polyubiquitylated proteins ([1]; A-T/LV-control shRNA cells): failed to block
UV-induced decrease of HA-polyubiquitylated proteins ([1]; ATM+ cells): completely blocked
